The target of assay [1] is T1, Serine/threonine-protein kinase Chk1 (Homo sapiens, UniProt O14757).
T1 sequence (O14757 whole entry): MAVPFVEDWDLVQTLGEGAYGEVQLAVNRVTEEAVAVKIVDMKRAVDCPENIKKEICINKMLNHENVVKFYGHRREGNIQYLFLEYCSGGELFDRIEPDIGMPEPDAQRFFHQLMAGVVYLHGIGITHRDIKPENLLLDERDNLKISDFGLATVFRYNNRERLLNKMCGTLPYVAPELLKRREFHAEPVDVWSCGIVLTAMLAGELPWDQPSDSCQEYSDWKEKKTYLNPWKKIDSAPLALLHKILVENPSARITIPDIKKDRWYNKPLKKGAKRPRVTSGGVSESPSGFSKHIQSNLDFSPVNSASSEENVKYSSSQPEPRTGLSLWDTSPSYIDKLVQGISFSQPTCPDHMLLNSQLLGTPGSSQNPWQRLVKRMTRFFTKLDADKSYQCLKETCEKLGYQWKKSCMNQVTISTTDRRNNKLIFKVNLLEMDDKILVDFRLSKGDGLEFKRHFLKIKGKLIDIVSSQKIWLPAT

The target of assay [2] is T1, Serine/threonine-protein kinase Chk1. Nature of the assay: Inhibition of CHK1 in human U2OS cells assessed as phosphorylation of H2AX after 2 hrs by FITC/propidium iodide staining-based immunofluorescence assay in presence of hydroxyurea. Format: cell-based.

The values that follow come from ChEMBL document CHEMBL2380296, “Structure-based design and optimization of 2-aminothiazole-4-carboxamide as a new class of CHK1 inhibitors” (Bioorg Med Chem Lett, 2013).

A value given as a limit tells only on which side of the number the result lay.

In the case of `O=C(Nc1cnccc1N1CCNCC1)c1csc(-c2ccc3[nH]ccc3c2)n1`, in assay [1], the IC50 – broadly, the point on the concentration scale where inhibition reaches its midpoint – worked out at 10 nM. For the same compound, the concentration for a half-maximal effect (EC50) (in general, the concentration that produces a half-maximal response) in assay [2] stood at 1000 nM.

For the compound `O=C(Nc1cccnc1N1CCNCC1)c1csc(-c2ccc3c(c2)CCO3)n1`, in assay [1], the IC50 was 870 nM.

For the compound `CN(Cc1ccccc1)c1nc(C(=O)Nc2ccccc2N2CCNCC2)cs1`, the IC50 in assay [1] is more than 50000 nM.

`O=C(Nc1ccccc1N1CCNCC1)c1csc(-n2ccnc2)n1` came in with an IC50 in assay [1] of 10000 nM.

For `O=C(Nc1ccccc1N1CCNCC1)c1csc(N2CCc3sccc3C2)n1`, half-maximal inhibition in assay [1] (IC50) required 39 nM.

Turning to `O=C(Nc1ccccc1N1CCNCC1)c1csc(NC2Cc3ccccc3C2)n1`, in assay [1], half-maximal inhibition (IC50) was put at 6900 nM.

Take `O=C(Nc1cnccc1N1CCNCC1)c1csc(Nc2n[nH]c3ccccc23)n1`: the half-maximal inhibitory concentration (IC50) in assay [1] turned out to be 3 nM. Also, the EC50 in assay [2] was found to be 40 nM.

Take `O=C(Nc1ccccc1N1CCNCC1)c1csc(N2CCc3ccccc3C2)n1`: in assay [1], the IC50 was 38 nM.

`O=C(Nc1ccccc1N1CCNCC1)c1csc(N2Cc3cn[nH]c3C2)n1`: in assay [1], the IC50 was 62 nM.

`COc1ccc2c(c1)C(=O)N(c1nc(C(=O)Nc3cncnc3N3CCNCC3)cs1)C2` yielded a half-inhibitory concentration (IC50) in assay [1] of 46 nM.

In turn, `O=C(Nc1cnccc1N1CCNCC1)c1csc(-c2cc3ccccc3s2)n1` registered an IC50 in assay [1] of 3 nM. For the same compound, the EC50 in assay [2] worked out at 1000 nM.

`O=C(Nc1ccccc1N1CCNCC1)c1csc(N2Cc3ccccc3C2)n1` came in with an IC50 in assay [1] of 8 nM. In addition, the EC50 in assay [2] was found to be 1400 nM.

Compound `COc1ccc2c(c1)C(=O)N(c1nc(C(=O)Nc3cnc(C)cc3N3CCNCC3)cs1)C2` displayed an IC50 in assay [1] of 10 nM. In addition, the concentration giving a half-maximal response (EC50) in assay [2] was 1000 nM.

In assay [1], `O=C(Nc1ccccc1N1CCNCC1)c1csc(Nc2n[nH]c3ccccc23)n1` gave an IC50 of 2 nM. The EC50 in assay [2] came to 350 nM.

`COc1ccc2c(c1)C(=O)N(c1nc(C(=O)Nc3cc(F)ccc3N3CCNCC3)cs1)C2` showed an IC50 in assay [1] of 4 nM. Further, in assay [2], the concentration for a half-maximal effect (EC50) came to 6000 nM.

As to `O=C(Nc1ccccc1N1CCNCC1)c1csc(N2Cc3ccncc3C2)n1`, 190 nM corresponded to half-maximal inhibition in assay [1] (IC50).

As to `Cc1ncc2c(n1)CN(c1nc(C(=O)Nc3ccccc3N3CCNCC3)cs1)C2`, the IC50 in assay [1] turned out to be 5700 nM.

In the case of `O=C(Nc1ncccc1N1CCNCC1)c1csc(-c2ccc3c(c2)CCO3)n1`, the concentration for half-maximal inhibition (IC50) in assay [1] came out at 4700 nM.

For the compound `Cn1nc(-c2ccccc2)cc1Nc1nc(C(=O)Nc2ccccc2N2CCNCC2)cs1`, in assay [1], half-maximal inhibition (IC50) was put at 4500 nM.

In assay [1], `O=C(Nc1ccccc1N1CCNCC1)c1csc(N2CCc3c(F)ccc(F)c3C2)n1` showed an IC50 of 1300 nM.

Regarding `O=C(Nc1cnccc1N1CCNCC1)c1csc(-n2ncc3ccccc32)n1`, the IC50 in assay [1] was found to be 3 nM. The EC50 in assay [2] worked out at 75 nM.

Compound `O=C(Nc1cnccc1N1CCNCC1)c1csc(-c2ccc3c(c2)CCO3)n1` had an IC50 in assay [1] of 55 nM.

In turn, `COc1ccc2c(c1)C(=O)N(c1nc(C(=O)Nc3ccccc3N3CCNCC3)cs1)C2` gave an IC50 in assay [1] of 5 nM. Besides, in assay [2], the EC50 was 250 nM.

On to `O=C(Nc1cnccc1N1CCNCC1)c1csc(-c2ccc3sccc3c2)n1`, for which half-maximal inhibition in assay [1] (IC50) was put at 7 nM. In assay [2], the EC50 is 1250 nM.

Take `COc1ccc2c(c1)C(=O)N(c1nc(C(=O)Nc3cnc4ccccc4c3N3CCNCC3)cs1)C2`: the half-inhibitory concentration (IC50) in assay [1] is 5200 nM.

For `COc1ccc2c(c1)C(=O)N(c1nc(C(=O)Nc3ccnnc3N3CCNCC3)cs1)C2`, inhibition in assay [1] was half-maximal at 281 nM (IC50).

In assay [1], `O=C(Nc1ccccc1N1CCNCC1)c1csc(-n2nnc3ccccc32)n1` registered an IC50 of 110 nM.

In the case of `O=C(Nc1ccccc1N1CCNCC1)c1csc(Nc2cc(-c3ccccc3)n[nH]2)n1`, the half-maximal inhibitory concentration (IC50) in assay [1] worked out at 14 nM. Moreover, the EC50 in assay [2] came to 7500 nM.

The compound `O=C(Nc1ccccc1N1CCNCC1)c1csc(-n2cccn2)n1` displayed an IC50 in assay [1] of 120 nM.

Consider `Cc1nc2c(s1)CN(c1nc(C(=O)Nc3ccccc3N3CCNCC3)cs1)C2`, for which 280 nM corresponded to half-maximal inhibition in assay [1] (IC50).

Compound `O=C(Nc1ccccc1N1CCNCC1)c1csc(Nc2ccccc2)n1` returned an IC50 in assay [1] of 92 nM.

For `COc1ccc(-c2cc(N)n(-c3nc(C(=O)Nc4ccccc4N4CCNCC4)cs3)n2)cc1`, the IC50 in assay [1] came to 980 nM.

Turning to `O=C(Nc1cnccc1N1CCNCC1)c1csc(N2Cc3ccccc3C2=O)n1`, the IC50 in assay [1] was determined as 2 nM. Further, the EC50 in assay [2] amounted to 100 nM.

In the case of `O=C(Nc1ccccc1N1CCNCC1)c1csc(N2CCc3[nH]cnc3C2)n1`, in assay [1], the half-inhibitory concentration (IC50) worked out at 4000 nM.

`O=C(Nc1cnccc1N1CCNCC1)c1csc(-c2ccc(Oc3ccccc3)cc2)n1` returned an IC50 in assay [1] of 430 nM.

In assay [1], `O=C(Nc1cnccc1N1CCNCC1)c1csc(-c2ccc3occc3c2)n1` came in with a 50% inhibitory concentration (IC50) of 28 nM.

As for `O=C(Nc1ccccc1N1CCNCC1)c1csc(N2CCCc3ccccc32)n1`, half-maximal inhibition in assay [1] (IC50) required 38 nM.

`CN(c1ccccc1)c1nc(C(=O)Nc2ccccc2N2CCNCC2)cs1`: half-maximal inhibition in assay [1] (IC50) was put at 240 nM.

As for `O=C(Nc1ccccc1N1CCNCC1)c1csc(-n2ncc3ccccc32)n1`, in assay [1], 2 nM corresponded to half-maximal inhibition (IC50). Also, in assay [2], the 50% effective concentration (EC50) came to 750 nM.

In turn, `O=C(Nc1cnccc1N1CCNCC1)c1csc(N2Cc3ccccc3C2)n1` came in with an IC50 in assay [1] of 8 nM. Moreover, in assay [2], the EC50 stood at 900 nM.

For the compound `O=C(Nc1ccccc1N1CCNCC1)c1csc(NCc2ccccc2)n1`, it took 11000 nM to reach half-maximal inhibition in assay [1] (IC50).

For `O=C(Nc1ccncc1N1CCNCC1)c1csc(-c2ccc3c(c2)CCO3)n1`, the IC50 in assay [1] was 230 nM.

Compound `COc1ccc(-c2cc(Nc3nc(C(=O)Nc4ccccc4N4CCNCC4)cs3)[nH]n2)cc1` registered an IC50 in assay [1] of 3 nM. The EC50 in assay [2] was 3750 nM.

In turn, `COc1cc2c(cc1OC)CN(c1nc(C(=O)Nc3ccccc3N3CCNCC3)cs1)CC2` registered an IC50 in assay [1] of 29 nM.
